Target: T1, human vasopressin V1b receptor (Homo sapiens, UniProt P47901)
T1 construct: expressed in transfected cells; host or cells: CHO-K1 (cell line hV1b-3H2_CHO), membrane preparation
T1 sequence (P47901 1-424): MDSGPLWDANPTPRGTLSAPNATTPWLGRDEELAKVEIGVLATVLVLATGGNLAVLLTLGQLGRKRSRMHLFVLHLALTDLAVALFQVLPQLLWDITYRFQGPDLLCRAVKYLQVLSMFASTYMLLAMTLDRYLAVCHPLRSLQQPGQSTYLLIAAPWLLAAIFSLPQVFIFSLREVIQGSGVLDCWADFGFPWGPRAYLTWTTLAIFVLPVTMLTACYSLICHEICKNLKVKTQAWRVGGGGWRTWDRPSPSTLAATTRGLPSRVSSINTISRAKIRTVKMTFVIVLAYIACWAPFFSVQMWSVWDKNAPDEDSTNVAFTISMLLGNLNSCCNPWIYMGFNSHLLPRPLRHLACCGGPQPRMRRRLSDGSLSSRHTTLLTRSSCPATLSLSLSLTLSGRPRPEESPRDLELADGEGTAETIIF
Experiment: Vasopressin V1b receptor binding assay
Conditions: membranes from CHO-K1 cells with stably expressed human V1b receptors; displacement of 1.5 nM 3H-AVP; read-out: V1b receptor affinity (affinity constant Ki)
Procedure, shortened: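 Membranes expressing human V1b receptor were incubated with radioligand and test compound (2% DMSO final) in 50 mM Tris, 10 mM MgCl2, 0.1% BSA, pH 7.4, for 60 min at room temperature, in triplicate. 1 uM AVP defined nonspecific binding. Bound ligand was separated by filtration and counted by scintillation; Ki came from nonlinear regression.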

| Ki [nM] | Structure (SMILES) |
| --- | --- |
| 500 to 10000 | COc1ccc(S(=O)(=O)n2c(=O)n(C(C)C(=O)N3CCN(c4ccncc4)CC3)c3cc(Cl)ccc32)cc1 (stereo not shown) [Example 30, 5-Chloro-1-(4-methoxybenzenesulfonyl)-3-[1-methyl-2-oxo-2-(4-pyridin-4-ylpiperazin-1-yl)-ethyl]-1,3-dihydrobenzimidazol-2-one] |
| 500 to 10000 | COc1ccc(S(=O)(=O)n2c(=O)n(C(C(=O)N3CCN(C4CCN(C)CC4)CC3)c3ccccc3)c3ccc(Cl)cc32)c(OC)c1 (stereo not shown) [Example 37, 5-Chloro-3-(2,4-dimethoxybenzenesulfonyl)-1-{2-[4-(1-methylpiperidin-4-yl)piperazin-1-yl]-2-oxo-1-phenylethyl}-1,3-dihydrobenzimidazol-2-one] |
| 500 to 10000 | COc1ccc(S(=O)(=O)n2c(=O)n(C(C(=O)NCCN3CCCCC3)c3ccccc3)c3cc(Cl)ccc32)cc1 (stereo not shown) [Example 114, 2-[6-Chloro-3-(4-methoxybenzenesulfonyl)-2-oxo-2,3-dihydrobenzimidazol-1-yl]-2-phenyl-N-(2-piperidin-1-ylethyl)acetamide] |
| < 100 | COc1ccc(S(=O)(=O)n2c(=O)n(C(C(=O)N3CCC(N4CCN(Cc5ccccc5)CC4)C3)c3ccccc3)c3cc(Cl)ccc32)cc1 (stereo not shown) [Example 141, 3-{2-[3-(4-Benzylpiperazin-1-yl)-pyrrolidin-1-yl]-2-oxo-1-phenylethyl}-5-chloro-1-(4-methoxybenzenesulfonyl)-1,3-dihydrobenzimidazol-2-one] |
| 500 to 10000 | COc1ccc(S(=O)(=O)n2c(=O)n(C(C(=O)NCCCO)c3ccccc3)c3cc(Cl)ccc32)cc1 (stereo not shown) [Example 121, 2-[6-Chloro-3-(4-methoxybenzenesulfonyl)-2-oxo-2,3-dihydrobenzimidazol-1-yl]-N-(3-hydroxypropyl)-2-phenylacetamide] |
| 500 to 10000 | COc1ccc(S(=O)(=O)n2c(=O)n(C(C(=O)NCc3ccccn3)c3ccccc3)c3cc(Cl)ccc32)cc1 (stereo not shown) [Example 111, 2-[6-Chloro-3-(4-methoxybenzenesulfonyl)-2-oxo-2,3-dihydrobenzimidazol-1-yl]-2-phenyl-N-pyridin-2-ylmethylacetamide] |
| 500 to 10000 | COc1ccc(S(=O)(=O)n2c(=O)n(C(C(=O)N3CCN(c4ccccn4)CC3)c3ccccc3)c3cc(Cl)ccc32)cc1 (stereo not shown) [Example 82, 5-Chloro-1-(4-methoxybenzenesulfonyl)-3-[2-oxo-1-phenyl-2-(4-pyridin-2-ylpiperazin-1-yl)ethyl]-1,3-dihydrobenzimidazol-2-one] |
| 100 to 500 | COc1ccc(S(=O)(=O)n2c(=O)n(C(C(=O)N3CCCC3)c3ccccc3)c3cc(Cl)ccc32)cc1 (stereo not shown) [Example 102, 5-Chloro-1-(4-methoxybenzenesulfonyl)-3-(2-oxo-1-phenyl-2-pyrrolidin-1-ylethyl)-1,3-dihydrobenzimidazol-2-one] |
| < 100 | COc1ccc(S(=O)(=O)n2c(=O)n(C(C(=O)N3CC[C@H](NC4CCN(CCF)CC4)C3)c3ccccc3)c3cc(C#N)ccc32)cc1 (stereo partly drawn) [Example 245, 3-(2-{(S)-3-[1-(2-Fluoro-ethyl)-piperidin-4-ylamino]-pyrrolidin-1-yl}-2-oxo-1-phenyl-ethyl)-1-(4-methoxy-benzenesulfonyl)-2-oxo-2,3-dihydro-1H-benzoimidazole-5-carbonitrile] |
| 100 to 500 | COc1ccc(S(=O)(=O)n2c(=O)n(C(C(=O)NCCCN3CCN(C)CC3)c3ccccc3)c3cc(Cl)ccc32)cc1 (stereo not shown) [Example 137, 2-[6-Chloro-3-(4-methoxybenzenesulfonyl)-2-oxo-2,3-dihydrobenzimidazol-1-yl]-N-[3-(4-methylpiperazin-1-yl)propyl]-2-phenyl-acetamide] |
| 500 to 10000 | COc1ccc(S(=O)(=O)n2c(=O)n(C(C(=O)N3CCN(C4CCN(C(=O)OC(C)(C)C)CC4)CC3)c3ccccc3)c3cc(Cl)ccc32)cc1 (stereo not shown) [Example 127, tert-Butyl 4-(4-{2-[6-chloro-3-(4-methoxybenzenesulfonyl)-2-oxo-2,3-dihydrobenzimidazol-1-yl]-2-phenylacetyl}piperazin-1-yl)piperidin-1-carboxylate] |
| 100 to 500 | COc1ccc(S(=O)(=O)n2c(=O)n(C(C(=O)N3CCC(N)C3)c3ccccc3)c3cc(Cl)ccc32)cc1 (stereo not shown) [Example 166, 3-[2-(3-Aminopyrrolidin-1-yl)-2-oxo-1-phenylethyl]-5-chloro-1-(4-methoxybenzenesulfonyl)-1,3-dihydrobenzimidazol-2-one] |
| 500 to 10000 | N#Cc1ccc(S(=O)(=O)n2c(=O)n(CC(=O)N3CCN(c4ccncc4)CC3)c3cc(Cl)ccc32)cc1 [Example 26, 4-{5-Chloro-2-oxo-3-[2-oxo-2-(4-pyridin-4-ylpiperazin-1-yl)ethyl]-2,3-dihydrobenzimidazole-1-sulfonyl}benzonitrile] |
| 500 to 10000 | N#Cc1ccc(S(=O)(=O)n2c(=O)n(C(C(=O)N3CCN(c4ccncc4)CC3)c3ccccc3)c3cc(C#N)ccc32)cc1 (stereo not shown) [Example 51, 1-(4-Cyanobenzenesulfonyl)-2-oxo-3-[2-oxo-1-phenyl-2-(4-pyridin-4-ylpiperazin-1-yl)ethyl]-2,3-dihydro-1H-benzimidazole-5-carbonitrile] |
| < 100 | COc1ccc(S(=O)(=O)n2c(=O)n(C(C(=O)N(C)CCN(C)C)c3ccccc3)c3cc(Cl)ccc32)cc1 (stereo not shown) [Example 106, 2-[6-Chloro-3-(4-methoxybenzenesulfonyl)-2-oxo-2,3-dihydrobenzimidazol-1-yl]-N-(2-dimethylaminoethyl)-N-methyl-2-phenylacetamide] |
| 100 to 500 | CCCN1CCN(CCNC(=O)C(c2ccccc2)n2c(=O)n(S(=O)(=O)c3ccc(OC)cc3)c3ccc(Cl)cc32)CC1 (stereo not shown) [Example 133, 2-[6-Chloro-3-(4-methoxybenzenesulfonyl)-2-oxo-2,3-dihydrobenzimidazol-1-yl]-2-phenyl-N-[2-(4-propylpiperazin-1-yl)-ethyl]-acetamide] |
| < 100 | CCCN1CCN(C2CCN(C(=O)C(c3ccccc3)n3c(=O)n(S(=O)(=O)c4ccc(OC)cc4)c4ccccc43)C2)CC1 (stereo not shown) [Example 107, 1-(4-Methoxybenzenesulfonyl)-3-{2-oxo-1-phenyl-2-[3-(4-propylpiperazin-1-yl)-pyrrolidin-1-yl]ethyl}-1,3-dihydrobenzimidazol-2-one] |
| 100 to 500 | CN1CCC(N2CCN(C(=O)C(c3ccccc3)n3c(=O)n(S(=O)(=O)c4ccc(C#N)cc4)c4ccc(Cl)cc43)CC2)CC1 (stereo not shown) [Example 68, 4-(5-Chloro-3-{2-[4-(1-methylpiperidin-4-yl)piperazin-1-yl]-2-oxo-1-phenylethyl}-2-oxo-2,3-dihydrobenzimidazol-1-sulfonyl)benzonitrile] |
| 100 to 500 | COc1ccc(S(=O)(=O)n2c(=O)n(C(C(=O)N3CCN(C4CCN(C)CC4)CC3)c3cccc(OC)c3)c3cc(Cl)ccc32)cc1 (stereo not shown) [Example 19, 5-Chloro-1-(4-methoxybenzenesulfonyl)-3-{1-(3-methoxyphenyl)-2-[4-(1-methylpiperidin-4-yl)piperazin-1-yl]-2-oxo-ethyl}-1,3-dihydrobenzimidazol-2-one] |
| 500 to 10000 | COc1ccc(S(=O)(=O)n2c(=O)n(C(C(=O)N3CCC[C@@H](N)C3)c3ccccc3)c3cc(C#N)ccc32)cc1 (stereo partly drawn) [Example 241, 3-[2-((R)-3-Amino-piperidin-1-yl)-2-oxo-1-phenyl-ethyl]-1-(4-methoxybenzenesulfonyl)-2-oxo-2,3-dihydro-1H-benzoimidazole-5-carbonitrile] |
| 500 to 10000 | CN1CCC(N2CCN(C(=O)C(c3ccccc3)n3c(=O)n(S(=O)(=O)c4cccc5cccnc45)c4cc(Cl)ccc43)CC2)CC1 (stereo not shown) [Example 71, 5-Chloro-1-{2-[4-(1-methylpiperidin-4-yl)piperazin-1-yl]-2-oxo-1-phenyl-ethyl}-3-(quinoline-8-sulfonyl)-1,3-dihydrobenzimidazol-2-one] |
| 500 to 10000 | COc1ccc(S(=O)(=O)n2c(=O)n(C(C(=O)N3CCN(c4ccncc4)CC3)c3ccccc3)c3ccccc32)c(OC)c1 (stereo not shown) [Example 70, 1-(2,4-Dimethoxybenzenesulfonyl)-3-[2-oxo-1-phenyl-2-(4-pyridin-4-ylpiperazin-1-yl)ethyl]-1,3-dihydrobenzimidazol-2-one] |
| 500 to 10000 | COc1ccc(S(=O)(=O)n2c(=O)n(C(C(=O)N3CCC(n4ccnc4)CC3)c3ccccc3)c3cc(Cl)ccc32)cc1 (stereo not shown) [Example 88, 5-Chloro-3-[2-(4-imidazol-1-ylpiperidin-1-yl)-2-oxo-1-phenylethyl]-1-(4-methoxybenzenesulfonyl)-1,3-dihydrobenzimidazol-2-one] |
| < 100 | COc1ccc(S(=O)(=O)n2c(=O)n(C(C(=O)N3CC[C@@H](CN4CCN(Cc5ccccc5)CC4)C3)c3ccccc3)c3cc(C#N)ccc32)cc1 (stereo partly drawn) [Example 221, 3-{2-[(S)-3-(4-Benzyl-piperazin-1-ylmethyl)-pyrrolidin-1-yl]-2-oxo-1-phenylethyl}-1-(4-methoxy-benzenesulfonyl)-2-oxo-2,3-dihydro-1H-benzoimidazole-5-carbonitrile; compound with trifluoroacetic acid] |
| 100 to 500 | O=C(C(c1ccccc1)n1c(=O)n(S(=O)(=O)c2ccsc2)c2ccc(Cl)cc21)N1CCN(c2ccncc2)CC1 (stereo not shown) [Example 5, 5-Chloro-3-[2-oxo-1-phenyl-2-(4-pyridin-4-ylpiperazin-1-yl)ethyl]-1-(thiophene-3-sulfonyl)-1,3-dihydrobenzimidazol-2-one] |

Reference: US8791148B2, “Substituted benzimidazolone derivatives, medicaments comprising them and their use” (AbbVie Deutschland GmbH & Co. KG, priority 2006, dated 2014)
